Each block holds one compound with its values, some of them ahead of it.
Key:
[1] = biological target: T1, Protein deacetylase HDAC6 (Homo sapiens, UniProt Q9UBN7); assay: Inhibition of HDAC6 (unknown origin) using (AMC)-labelled p53 peptide( 379 to 382 residues) RHKKAc as substrate
T1 sequence (Q9UBN7 whole entry): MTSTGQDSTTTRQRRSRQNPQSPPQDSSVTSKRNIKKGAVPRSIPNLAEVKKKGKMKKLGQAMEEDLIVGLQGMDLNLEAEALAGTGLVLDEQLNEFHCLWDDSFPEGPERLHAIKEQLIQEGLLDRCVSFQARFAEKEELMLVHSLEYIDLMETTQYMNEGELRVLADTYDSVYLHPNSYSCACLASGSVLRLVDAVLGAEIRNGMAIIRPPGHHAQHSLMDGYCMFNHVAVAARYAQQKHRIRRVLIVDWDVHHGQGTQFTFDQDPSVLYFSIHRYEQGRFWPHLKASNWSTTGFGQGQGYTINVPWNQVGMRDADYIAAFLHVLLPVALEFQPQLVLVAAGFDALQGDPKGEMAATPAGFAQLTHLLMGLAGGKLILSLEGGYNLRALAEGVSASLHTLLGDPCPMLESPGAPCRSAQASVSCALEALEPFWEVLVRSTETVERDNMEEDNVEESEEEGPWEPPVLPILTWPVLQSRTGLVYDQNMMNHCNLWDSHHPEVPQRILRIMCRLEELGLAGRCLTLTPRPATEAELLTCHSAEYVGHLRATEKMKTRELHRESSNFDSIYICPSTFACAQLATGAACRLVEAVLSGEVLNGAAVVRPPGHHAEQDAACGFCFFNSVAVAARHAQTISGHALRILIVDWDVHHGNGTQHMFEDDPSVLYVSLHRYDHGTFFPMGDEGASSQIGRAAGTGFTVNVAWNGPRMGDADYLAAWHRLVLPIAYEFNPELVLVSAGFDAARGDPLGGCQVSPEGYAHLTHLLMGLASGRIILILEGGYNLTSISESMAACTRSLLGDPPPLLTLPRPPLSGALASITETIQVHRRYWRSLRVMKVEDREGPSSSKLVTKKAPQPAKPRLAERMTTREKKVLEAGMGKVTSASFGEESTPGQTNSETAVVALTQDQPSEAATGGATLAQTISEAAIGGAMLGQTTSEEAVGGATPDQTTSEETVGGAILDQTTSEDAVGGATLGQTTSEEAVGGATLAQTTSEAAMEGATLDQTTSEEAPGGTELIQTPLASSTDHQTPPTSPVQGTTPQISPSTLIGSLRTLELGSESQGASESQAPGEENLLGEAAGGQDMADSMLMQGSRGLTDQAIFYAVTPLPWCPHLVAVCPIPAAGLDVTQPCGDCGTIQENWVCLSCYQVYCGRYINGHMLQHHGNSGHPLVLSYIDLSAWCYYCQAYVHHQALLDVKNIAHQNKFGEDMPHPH

HCT-116 = assay: Antitumor activity against human HCT116 cells xenografted in BALB/c athymic nude mouse assessed as tumor growth inhibition at 20 mg/kg administered twice daily for 14 days and measuring daily during compound dosing relative to control; assay type: functional; conditions: HCT-116, 336 h, time 14 day, read-out: TGI
SH-SY5Y = assay: Antiproliferative activity against human SH-SY5Y cells incubated for 72 hrs by sulphorhodamine B assay; assay type: functional, cell-based
KMS-11 = assay: Antiproliferative activity against human KMS-11 cells incubated for 72 hrs by sulphorhodamine B assay; assay type: functional
Histone deacetylase 1 [2] = biological target: T2, Histone deacetylase 1 (Homo sapiens, UniProt Q13547); assay: Inhibition of HDAC1 (unknown origin) using (AMC)-labelled p53 peptide( 379 to 382 residues) RHKKAc as substrate
T2 sequence (Q13547 whole entry, the tested form may be a part): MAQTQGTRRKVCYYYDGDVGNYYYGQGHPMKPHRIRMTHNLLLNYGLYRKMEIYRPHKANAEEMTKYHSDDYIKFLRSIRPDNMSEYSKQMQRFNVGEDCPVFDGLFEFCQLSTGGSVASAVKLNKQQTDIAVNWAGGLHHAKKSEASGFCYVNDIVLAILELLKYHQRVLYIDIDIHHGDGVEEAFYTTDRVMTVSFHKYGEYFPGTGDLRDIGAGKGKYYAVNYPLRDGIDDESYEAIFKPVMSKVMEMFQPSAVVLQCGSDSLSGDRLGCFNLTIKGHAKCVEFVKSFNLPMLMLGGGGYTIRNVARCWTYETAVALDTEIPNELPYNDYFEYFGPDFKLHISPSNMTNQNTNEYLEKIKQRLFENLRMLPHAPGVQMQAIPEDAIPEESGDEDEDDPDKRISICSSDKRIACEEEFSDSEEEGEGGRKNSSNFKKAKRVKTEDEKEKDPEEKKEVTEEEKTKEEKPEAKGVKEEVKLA

MCF7 = assay: Antiproliferative activity against human MCF7 incubated for 72 hrs by MTT assay; assay type: functional
HEK293T = assay: Selectivity ratio of IC50 for Flag-tagged HDAC1 (unknown origin) expressed in 293T cells to IC50 for Flag-tagged HDAC6 (unknown origin) expressed in 293T cells; assay type: cell-based; conditions: Homo sapiens
Histone deacetylase 1 [3] = biological target: T2, Histone deacetylase 1; assay: Inhibition of Flag-tagged HDAC1 (unknown origin) expressed in 293T cells using ZMAL as substrate incubated for 180 mins by fluorescence method; parameters: species or system HEK293T
[4] = biological target: T1, Protein deacetylase HDAC6; assay: Inhibition of Flag-tagged HDAC6 (unknown origin) expressed in 293T cells using ZMAL as substrate incubated for 180 mins by fluorescence method; parameters: species or system HEK293T
Homo sapiens [5] = organism: Homo sapiens; assay: Selectivity ratio of IC50 for human HDAC1 to IC50 for human HDAC6
Homo sapiens [6] = organism: Homo sapiens; assay: Selectivity ratio of IC50 for human HDAC4 to IC50 for human HDAC6
OPM-2 = assay: Cytotoxicity against human OPM-2 cells incubated for 48 hrs by MTT assay; assay type: functional, cell-based; conditions: OPM-2, 48 h
MM1.S = assay: Cytotoxicity against human MM1.S cells incubated for 48 hrs by MTT assay; assay type: functional, cell-based
[7] = biological target: NAD-dependent protein deacetylase sirtuin-1 (Homo sapiens, UniProt Q96EB6); assay: Inhibition of human sirtuin 1 using fluorogenic HDAC substrate incubated for 20 mins by fluorimetry
Chain of NAD-dependent protein deacetylase sirtuin-1 (Q96EB6 whole entry): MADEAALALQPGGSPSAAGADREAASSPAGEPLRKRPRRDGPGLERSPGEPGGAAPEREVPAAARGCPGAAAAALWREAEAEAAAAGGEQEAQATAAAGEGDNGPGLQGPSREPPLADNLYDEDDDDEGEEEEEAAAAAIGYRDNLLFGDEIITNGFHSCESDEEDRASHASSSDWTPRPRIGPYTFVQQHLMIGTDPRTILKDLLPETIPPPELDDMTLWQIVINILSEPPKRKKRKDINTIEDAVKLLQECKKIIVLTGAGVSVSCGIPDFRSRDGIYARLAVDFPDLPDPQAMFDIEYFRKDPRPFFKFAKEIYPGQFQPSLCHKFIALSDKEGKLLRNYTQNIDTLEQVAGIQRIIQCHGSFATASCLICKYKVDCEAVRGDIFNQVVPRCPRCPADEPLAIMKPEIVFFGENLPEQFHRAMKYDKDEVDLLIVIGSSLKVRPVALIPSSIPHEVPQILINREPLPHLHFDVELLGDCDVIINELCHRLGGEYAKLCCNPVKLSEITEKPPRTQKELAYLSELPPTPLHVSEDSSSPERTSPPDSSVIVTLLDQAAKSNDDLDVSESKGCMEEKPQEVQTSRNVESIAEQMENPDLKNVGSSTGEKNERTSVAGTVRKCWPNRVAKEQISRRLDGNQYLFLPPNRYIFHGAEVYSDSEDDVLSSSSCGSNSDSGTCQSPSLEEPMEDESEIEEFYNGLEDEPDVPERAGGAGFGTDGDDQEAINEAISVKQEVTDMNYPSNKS

[8] = biological target: NAD-dependent protein deacetylase sirtuin-2 (Homo sapiens, UniProt Q8IXJ6); assay: Inhibition of human sirtuin 2 using fluoro-lysine sirtuin 2 deacetylase as substrate incubated for 60 mins by fluorimetry
Chain of NAD-dependent protein deacetylase sirtuin-2 (Q8IXJ6 whole entry): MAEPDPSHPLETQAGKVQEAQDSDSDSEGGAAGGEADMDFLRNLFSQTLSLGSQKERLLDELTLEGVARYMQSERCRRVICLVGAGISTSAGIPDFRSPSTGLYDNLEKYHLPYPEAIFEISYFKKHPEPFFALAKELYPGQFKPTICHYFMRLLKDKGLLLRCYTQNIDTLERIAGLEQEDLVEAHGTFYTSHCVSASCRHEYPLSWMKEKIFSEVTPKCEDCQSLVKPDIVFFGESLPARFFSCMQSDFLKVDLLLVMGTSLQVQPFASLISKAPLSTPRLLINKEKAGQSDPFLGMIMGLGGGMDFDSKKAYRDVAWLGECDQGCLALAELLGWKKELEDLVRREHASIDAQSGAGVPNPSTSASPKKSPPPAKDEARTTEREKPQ

Histone deacetylase 11 = Histone deacetylase 11 (Homo sapiens, UniProt Q96DB2); assay: Inhibition of human HDAC11 using fluorogenic HDAC substrate incubated for 30 mins by fluorescence method
Chain of Histone deacetylase 11 (Q96DB2 whole entry): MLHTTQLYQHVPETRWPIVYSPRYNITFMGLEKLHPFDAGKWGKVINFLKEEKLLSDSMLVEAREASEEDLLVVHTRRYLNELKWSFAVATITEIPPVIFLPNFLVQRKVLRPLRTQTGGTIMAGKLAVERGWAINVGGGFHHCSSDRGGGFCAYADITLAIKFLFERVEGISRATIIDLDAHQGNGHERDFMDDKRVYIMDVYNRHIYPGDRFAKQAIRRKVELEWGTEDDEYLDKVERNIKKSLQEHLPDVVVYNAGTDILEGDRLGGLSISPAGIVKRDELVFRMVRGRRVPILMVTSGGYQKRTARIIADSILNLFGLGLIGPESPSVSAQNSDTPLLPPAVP

Histone deacetylase 8 = Histone deacetylase 8 (Homo sapiens, UniProt Q9BY41); assay: Inhibition of human HDAC8 using fluorogenic HDAC substrate incubated for 60 mins by fluorimetry
Chain of Histone deacetylase 8 (Q9BY41 whole entry): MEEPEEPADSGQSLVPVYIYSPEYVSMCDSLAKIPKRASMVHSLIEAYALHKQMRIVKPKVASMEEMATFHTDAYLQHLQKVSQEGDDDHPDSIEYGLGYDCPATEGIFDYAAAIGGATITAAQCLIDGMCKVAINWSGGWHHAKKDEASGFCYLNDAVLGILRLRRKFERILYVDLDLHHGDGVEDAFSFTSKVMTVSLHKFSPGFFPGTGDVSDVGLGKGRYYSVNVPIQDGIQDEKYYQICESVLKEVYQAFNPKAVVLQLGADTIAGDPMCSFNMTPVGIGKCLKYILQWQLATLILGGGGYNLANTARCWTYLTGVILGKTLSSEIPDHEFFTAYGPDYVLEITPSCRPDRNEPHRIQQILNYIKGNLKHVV

[9] = biological target: T1, Protein deacetylase HDAC6; assay: Inhibition of human HDAC6 using fluorogenic HDAC substrate incubated for 30 mins by fluorimetry
Histone deacetylase 2 = Histone deacetylase 2 (Homo sapiens, UniProt Q92769); assay: Inhibition of human HDAC2 using fluorogenic HDAC substrate incubated for 15 mins by fluorimetry
[10] = biological target: T3, Polyamine deacetylase HDAC10 (Homo sapiens, UniProt Q969S8); assay: Inhibition of human HDAC10 using fluorogenic HDAC substrate incubated for 45 mins by fluorimetry
T3 sequence (Q969S8 whole entry): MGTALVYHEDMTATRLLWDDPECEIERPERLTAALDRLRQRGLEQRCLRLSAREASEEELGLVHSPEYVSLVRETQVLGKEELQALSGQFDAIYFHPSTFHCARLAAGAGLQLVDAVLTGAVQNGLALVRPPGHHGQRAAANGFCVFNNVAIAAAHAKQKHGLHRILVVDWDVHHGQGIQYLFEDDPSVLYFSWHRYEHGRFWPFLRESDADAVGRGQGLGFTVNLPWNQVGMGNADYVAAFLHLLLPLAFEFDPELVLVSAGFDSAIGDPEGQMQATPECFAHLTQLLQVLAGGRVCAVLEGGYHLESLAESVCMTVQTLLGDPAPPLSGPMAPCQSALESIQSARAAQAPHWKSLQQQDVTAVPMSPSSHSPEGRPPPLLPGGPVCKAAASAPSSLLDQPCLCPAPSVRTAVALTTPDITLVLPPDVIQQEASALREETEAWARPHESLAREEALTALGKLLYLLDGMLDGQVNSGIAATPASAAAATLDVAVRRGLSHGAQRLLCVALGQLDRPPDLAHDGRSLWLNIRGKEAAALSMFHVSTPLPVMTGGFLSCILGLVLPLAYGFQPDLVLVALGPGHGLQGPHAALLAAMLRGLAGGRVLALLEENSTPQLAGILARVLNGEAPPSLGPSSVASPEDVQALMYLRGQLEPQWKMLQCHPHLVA

Histone deacetylase 5 = Histone deacetylase 5 (Homo sapiens, UniProt Q9UQL6); assay: Inhibition of human HDAC5 using fluorogenic HDAC substrate incubated for 30 mins by fluorimetry
Chain of Histone deacetylase 5 (Q9UQL6 whole entry): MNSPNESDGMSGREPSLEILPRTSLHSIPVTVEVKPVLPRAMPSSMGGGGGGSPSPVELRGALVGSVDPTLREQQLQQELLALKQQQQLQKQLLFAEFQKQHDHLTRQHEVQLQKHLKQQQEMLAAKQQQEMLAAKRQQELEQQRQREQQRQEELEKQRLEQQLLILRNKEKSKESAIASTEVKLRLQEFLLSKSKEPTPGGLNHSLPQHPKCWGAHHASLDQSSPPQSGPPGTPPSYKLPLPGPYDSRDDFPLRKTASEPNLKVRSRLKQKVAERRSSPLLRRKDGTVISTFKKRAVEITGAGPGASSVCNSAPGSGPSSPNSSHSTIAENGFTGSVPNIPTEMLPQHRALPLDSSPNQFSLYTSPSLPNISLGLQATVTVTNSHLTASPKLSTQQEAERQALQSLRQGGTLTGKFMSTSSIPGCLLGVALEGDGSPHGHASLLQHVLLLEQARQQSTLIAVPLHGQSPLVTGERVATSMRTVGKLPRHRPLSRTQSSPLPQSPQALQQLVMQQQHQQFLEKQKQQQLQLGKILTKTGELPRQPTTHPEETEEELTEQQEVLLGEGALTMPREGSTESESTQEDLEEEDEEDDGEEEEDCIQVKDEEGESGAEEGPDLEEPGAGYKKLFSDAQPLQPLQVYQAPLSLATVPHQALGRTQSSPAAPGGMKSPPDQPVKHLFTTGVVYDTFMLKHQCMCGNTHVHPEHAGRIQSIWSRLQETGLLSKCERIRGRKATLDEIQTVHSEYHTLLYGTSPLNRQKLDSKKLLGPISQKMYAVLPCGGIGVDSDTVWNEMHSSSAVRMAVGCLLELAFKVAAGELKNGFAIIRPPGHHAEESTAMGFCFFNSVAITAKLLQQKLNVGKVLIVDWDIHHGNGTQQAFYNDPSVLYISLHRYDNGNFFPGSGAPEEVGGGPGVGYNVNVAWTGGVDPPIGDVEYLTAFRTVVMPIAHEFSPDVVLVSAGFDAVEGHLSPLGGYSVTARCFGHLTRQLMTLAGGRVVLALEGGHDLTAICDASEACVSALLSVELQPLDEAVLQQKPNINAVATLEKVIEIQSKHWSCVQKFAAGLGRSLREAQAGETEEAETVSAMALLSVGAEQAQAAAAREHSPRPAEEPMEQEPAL

Histone deacetylase 9 = Histone deacetylase 9 (Homo sapiens, UniProt Q9UKV0); assay: Inhibition of human HDAC9 using fluorogenic HDAC substrate incubated for 30 mins by fluorimetry
Histone deacetylase 4 = Histone deacetylase 4 (Homo sapiens, UniProt P56524); assay: Inhibition of human HDAC4 using fluorogenic HDAC substrate incubated for 30 mins by fluorimetry
Chain of Histone deacetylase 4 (P56524 whole entry): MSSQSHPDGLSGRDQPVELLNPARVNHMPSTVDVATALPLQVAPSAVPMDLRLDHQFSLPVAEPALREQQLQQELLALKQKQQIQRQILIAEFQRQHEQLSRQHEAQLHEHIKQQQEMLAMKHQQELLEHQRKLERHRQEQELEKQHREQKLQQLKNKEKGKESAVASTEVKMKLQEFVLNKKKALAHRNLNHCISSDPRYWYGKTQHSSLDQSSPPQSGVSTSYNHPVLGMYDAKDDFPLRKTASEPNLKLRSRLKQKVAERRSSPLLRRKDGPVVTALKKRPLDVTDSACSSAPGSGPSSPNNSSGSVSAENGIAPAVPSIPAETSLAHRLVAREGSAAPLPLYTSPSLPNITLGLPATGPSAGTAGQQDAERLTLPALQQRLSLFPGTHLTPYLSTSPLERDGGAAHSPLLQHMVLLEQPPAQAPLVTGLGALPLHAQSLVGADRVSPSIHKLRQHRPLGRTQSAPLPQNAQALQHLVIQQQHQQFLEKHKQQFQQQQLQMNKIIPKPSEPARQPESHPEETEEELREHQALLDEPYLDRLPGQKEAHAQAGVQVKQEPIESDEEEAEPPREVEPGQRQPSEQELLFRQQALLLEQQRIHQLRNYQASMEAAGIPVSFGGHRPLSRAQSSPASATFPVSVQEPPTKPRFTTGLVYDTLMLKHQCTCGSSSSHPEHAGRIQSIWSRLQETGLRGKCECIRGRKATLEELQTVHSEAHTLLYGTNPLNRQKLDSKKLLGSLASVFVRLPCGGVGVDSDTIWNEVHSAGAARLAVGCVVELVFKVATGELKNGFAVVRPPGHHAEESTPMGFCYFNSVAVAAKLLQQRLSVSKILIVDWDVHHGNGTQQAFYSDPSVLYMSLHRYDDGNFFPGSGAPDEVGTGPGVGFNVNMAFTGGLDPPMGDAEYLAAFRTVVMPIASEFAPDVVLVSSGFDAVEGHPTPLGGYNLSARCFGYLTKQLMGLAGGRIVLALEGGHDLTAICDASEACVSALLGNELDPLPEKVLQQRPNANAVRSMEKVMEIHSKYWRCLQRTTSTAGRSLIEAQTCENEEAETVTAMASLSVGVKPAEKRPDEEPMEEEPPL

Histone deacetylase 1 [11] = biological target: T2, Histone deacetylase 1; assay: Inhibition of human HDAC1 using fluorogenic HDAC substrate incubated for 15 mins by fluorimetry
Histone deacetylase 3 = Histone deacetylase 3 (Homo sapiens, UniProt O15379); assay: Inhibition of human HDAC3 using fluorogenic HDAC substrate incubated for 10 mins by spectrophotometric method
Chain of Histone deacetylase 3 (O15379 whole entry): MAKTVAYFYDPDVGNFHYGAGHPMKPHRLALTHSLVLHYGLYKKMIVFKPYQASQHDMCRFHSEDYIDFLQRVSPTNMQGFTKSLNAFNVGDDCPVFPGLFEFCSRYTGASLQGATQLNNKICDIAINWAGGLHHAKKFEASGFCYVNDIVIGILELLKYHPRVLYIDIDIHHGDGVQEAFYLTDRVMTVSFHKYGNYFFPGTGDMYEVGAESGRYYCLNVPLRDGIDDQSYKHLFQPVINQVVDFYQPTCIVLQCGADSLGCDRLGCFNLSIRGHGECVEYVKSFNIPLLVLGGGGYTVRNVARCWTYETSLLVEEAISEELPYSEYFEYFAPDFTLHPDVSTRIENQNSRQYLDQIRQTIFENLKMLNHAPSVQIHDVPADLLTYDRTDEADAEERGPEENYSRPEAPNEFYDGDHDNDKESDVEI

Homo sapiens [12] = organism: Homo sapiens; assay: Selectivity ratio of IC50 for human HDAC9 to IC50 for human HDAC6
Homo sapiens [13] = organism: Homo sapiens; assay: Selectivity ratio of IC50 for human HDAC10 to IC50 for human HDAC6
Homo sapiens [14] = organism: Homo sapiens; assay: Selectivity ratio of IC50 for human HDAC8 to IC50 for human HDAC6
Homo sapiens [15] = organism: Homo sapiens; assay: Selectivity ratio of IC50 for human HDAC11 to IC50 for human HDAC6
Homo sapiens [16] = organism: Homo sapiens; assay: Selectivity ratio of IC50 for human HDAC5 to IC50 for human HDAC6
Homo sapiens [17] = organism: Homo sapiens; assay: Selectivity ratio of IC50 for human HDAC3 to IC50 for human HDAC6
Homo sapiens [18] = organism: Homo sapiens; assay: Selectivity ratio of IC50 for human HDAC7 to IC50 for human HDAC6
Homo sapiens [19] = organism: Homo sapiens; assay: Selectivity ratio of IC50 for human HDAC2 to IC50 for human HDAC6

SMILES: CC(/C=C/C(=O)NO)=C\c1ccc(NS(=O)(=O)c2ccc(N(CCCl)CCCl)cc2)cc1
IC50 [1]: 479 nM | inhibition in vivo at 20 mg/kg (HCT-116): 78% | IC50 (SH-SY5Y): 280 nM | GI50 (KMS-11): 480 nM | IC50 (Histone deacetylase 1 [2]): 14 µM

GI50 (MCF7): 104 µM | IC50 (Histone deacetylase 1 [3]): 100 µM | IC50 [4]: 3.97 µM
SMILES: COC(=O)[C@H](Cc1ccccn1)NC(=O)CCCCCCC(=O)NO
Ratio IC50 (HEK293T): 25

Ratio IC50 (Homo sapiens [5]): 1400
SMILES: Cc1nc2ccccc2n1Cc1ccc(C(=O)NO)cc1F

Ratio IC50 (Homo sapiens [6]): 842 | Ratio IC50 (Homo sapiens [5]): 5790
SMILES: O=C(NO)c1ccc(Cn2c3c(c4ccccc42)CS(=O)(=O)CC3)cc1

IC50 [7]: > 1000 nM | IC50 [8]: > 1000 nM
SMILES: O=C(CCCCCCNC(=O)c1cnc(N(c2ccccc2)c2ccccc2)nc1)NO [RICOLINOSTAT]
IC50 (OPM-2): 2000 nM | IC50 (MM1.S): 2000 nM

IC50 (Histone deacetylase 11): > 5 µM | IC50 (Histone deacetylase 8): 1000 nM | IC50 [9]: 8.2 nM | IC50 (Histone deacetylase 2): > 5 µM | IC50 [10]: > 5 µM | IC50 (Histone deacetylase 5): 1000 nM | IC50 (Histone deacetylase 9): 100 nM | IC50 (Histone deacetylase 4): 1000 nM | IC50 (Histone deacetylase 1 [11]): > 5 µM | IC50 (Histone deacetylase 3): > 5 µM
SMILES: O=C(NO)c1ccc(Cn2c3c(c4ccccc42)S(=O)(=O)CC3)cc1

Ratio IC50 (Homo sapiens [12]): > 100 | Ratio IC50 (Homo sapiens [6]): > 100 | Ratio IC50 (Homo sapiens [13]): > 100 | Ratio IC50 (Homo sapiens [5]): > 100 | Ratio IC50 (Homo sapiens [14]): > 100 | Ratio IC50 (Homo sapiens [15]): > 100 | Ratio IC50 (Homo sapiens [16]): > 100 | Ratio IC50 (Homo sapiens [17]): > 100 | Ratio IC50 (Homo sapiens [18]): > 100 | Ratio IC50 (Homo sapiens [19]): > 100
SMILES: O=C(NO)c1ccc(NCc2csc3ccccc23)cc1

From ChEMBL document CHEMBL4673207, “Recent advances in the discovery of potent and selective HDAC6 inhibitors” (Eur J Med Chem, 2018)
